Reference: US20260345584A1, “METHODS AND PHARMACEUTICAL COMPOSITIONS FOR TREATING CHEMOTHERAPY-INDUCED PERIPHERAL NEUROPATHY WITH EG5 INHIBITORS” (UNIVERSITY OF MIAMI, priority 2023, published 2026)

System: nox1
Assay: Nox1 immunofluorescence: subcellular translocation in keratinocytes
Type: in vivo, zebrafish
Conditions: EMD534085 alone, 96 hr
Description: The stock solution was divided into 20-30 μl aliquots and stored at −20 °C until use (maximal 6 months). Immediately prior to use, paclitaxel was diluted in Ringer's solution and added to dechorionated larval zebrafish. The larval fish were placed individually or in small groups into wells of a 12-well plate containing the treatment solutions. The control group was 0.05% DMSO. Plates were incubated at 28.5 °C and protected from light. Treatment lengths are indicated in the Drawings, Description of the Drawings, and Examples where appropriate. […] EMD534085, Eg5 inhibitor (MedChemExpress, Cat. No. HY-15000) was diluted in 100% DMSO to make a 10 mM stock solution and stored at −20 °C. […] The solutions were exchanged every 48 hr. […]
Measurements were determined by measuring fluorescence intensity in Fiji using single slice and single channel modes. First, a line using the line tool was placed along the plasma membrane that was clearly distinguishable from the cytoplasm due to increased fluorescence compared with the cytoplasm in all treatment groups. The measurement tool was subsequently selected to measure the mean fluorescence intensity. […] To determine the mean cytoplasmic fluorescence intensity, nuclei were first overlaid with Nox1 fluorescence to ensure the exclusion of nuclear measurements. […] The fluorescence data was exported to Excel and the ratios calculated.

CN(C)CCNC(=O)NC[C@H]1CC[C@@H]2[C@H](O1)c1cc(C(F)(F)F)ccc1N[C@H]2c1ccccc1 [EMD534085]
Nox1 Membrane:cytoplasmic ratio: 1.7±0.1 | Nox1 Nucleus:cytoplasmic ratio: 1.36±0.08
